Experimental data taken from US7057052B2, “Heterocyclic quinones as pharmaceutical agents” (Duke University, priority 2002, dated 2006).
Like-named read-outs stand apart in the source and are kept apart here.

Assays:
Format in all cases: biochemical
[1] = molecular target: T1, Cdc25A (Homo sapiens, UniProt P30304); assay: Cdc25A phosphatase inhibition screen at 50 μM; settings: read-out: Percent Inhibition at 50 uM compound, Cdc25 A
T1 sequence (P30304 1-524): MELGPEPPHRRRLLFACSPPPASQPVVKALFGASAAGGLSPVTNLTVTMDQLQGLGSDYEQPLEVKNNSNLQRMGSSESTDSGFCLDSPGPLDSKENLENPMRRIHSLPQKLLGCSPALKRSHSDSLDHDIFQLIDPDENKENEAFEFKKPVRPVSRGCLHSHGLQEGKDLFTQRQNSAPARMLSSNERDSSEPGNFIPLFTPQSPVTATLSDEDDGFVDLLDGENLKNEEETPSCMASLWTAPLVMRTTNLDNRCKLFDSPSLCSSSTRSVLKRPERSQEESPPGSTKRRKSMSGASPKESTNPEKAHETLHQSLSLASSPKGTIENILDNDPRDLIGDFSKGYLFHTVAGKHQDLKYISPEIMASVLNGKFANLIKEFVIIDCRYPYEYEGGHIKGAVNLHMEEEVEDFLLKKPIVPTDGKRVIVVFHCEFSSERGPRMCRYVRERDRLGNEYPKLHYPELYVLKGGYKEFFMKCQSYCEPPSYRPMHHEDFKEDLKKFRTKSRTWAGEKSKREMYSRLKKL
Description: (§1) Using procedures known to those skilled in the art, the compounds listed in Table 3 were screened against Cdc25A, Cdc25B, and Cdc25C at 50 μM. […] To analyze these effects further, the compounds were then screened against Cdc25B in a 3 pt. IC-50, using 1, 7 and 50 μM. Several of the compounds were also screened with an 8 pt. IC-50 process, using 0.1–10 μM, allowing determination of Hill slopes.

[2] = molecular target: T2, Cdc25B (Homo sapiens, UniProt P30305); assay: Cdc25B phosphatase inhibition (50 μM screen, 3 pt. and 8 pt. IC-50); settings: for IC50: Cdc25B; for inhibition at 50 µM: read-out: Percent Inhibition at 50 uM compound, Cdc25 B
T2 sequence (P30305 1-580): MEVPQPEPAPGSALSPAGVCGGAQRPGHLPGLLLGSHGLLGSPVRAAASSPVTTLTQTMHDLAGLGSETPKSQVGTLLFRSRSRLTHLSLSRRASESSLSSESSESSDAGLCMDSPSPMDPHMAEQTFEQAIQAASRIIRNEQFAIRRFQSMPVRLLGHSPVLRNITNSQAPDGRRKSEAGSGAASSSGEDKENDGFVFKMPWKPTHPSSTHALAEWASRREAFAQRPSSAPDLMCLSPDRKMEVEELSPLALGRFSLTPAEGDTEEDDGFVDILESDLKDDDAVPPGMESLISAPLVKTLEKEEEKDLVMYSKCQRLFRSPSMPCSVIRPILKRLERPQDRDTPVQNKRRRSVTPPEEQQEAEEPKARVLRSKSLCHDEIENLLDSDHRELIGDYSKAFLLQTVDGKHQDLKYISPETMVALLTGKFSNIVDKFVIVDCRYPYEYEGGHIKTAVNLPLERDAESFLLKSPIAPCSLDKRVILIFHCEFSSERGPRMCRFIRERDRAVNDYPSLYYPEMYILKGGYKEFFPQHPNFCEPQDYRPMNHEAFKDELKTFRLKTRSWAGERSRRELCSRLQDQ
Description: as §1

[3] = molecular target: T3, Cdc25C (Homo sapiens, UniProt P30307); assay: Cdc25C phosphatase inhibition screen at 50 μM; settings: read-out: Percent Inhibition at 50 uM compound, Cdc25 C
T3 sequence (P30307 1-473): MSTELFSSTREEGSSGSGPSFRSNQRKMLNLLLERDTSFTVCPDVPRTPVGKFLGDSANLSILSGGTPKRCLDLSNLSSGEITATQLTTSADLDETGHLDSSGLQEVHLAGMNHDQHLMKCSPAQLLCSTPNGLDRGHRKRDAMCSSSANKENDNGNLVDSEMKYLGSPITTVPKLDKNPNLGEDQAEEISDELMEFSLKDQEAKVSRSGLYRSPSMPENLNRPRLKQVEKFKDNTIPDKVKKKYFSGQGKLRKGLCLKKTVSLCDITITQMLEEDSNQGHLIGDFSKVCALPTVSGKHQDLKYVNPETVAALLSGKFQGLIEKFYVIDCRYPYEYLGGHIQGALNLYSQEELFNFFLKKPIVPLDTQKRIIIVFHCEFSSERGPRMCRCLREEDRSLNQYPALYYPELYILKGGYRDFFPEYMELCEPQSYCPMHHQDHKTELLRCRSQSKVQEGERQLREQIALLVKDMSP
Description: as §1

[4] = 3 pt. IC-50 using 1, 7 and 50 μM, read-out: IC50 (3 pt)
[5] = 8 pt. IC-50 using 0.1–10 μM, read-out: IC50 (8 pt)

inhibition at 50 µM [1] [%] | IC50 [2, 4] [nM] | inhibition at 50 µM [2] [%] | inhibition at 50 µM [3] [%] | IC50 [2, 5] [nM] | Structure (SMILES)
36 | 79500 | 15 | 13 |  | COc1cccc2c(C3=C(O)C(=O)C=C(O)C3=O)c[nH]c12 [7A, 2,5-dihydroxy-3-(7-methoxy-1H-indol-3-yl)-[1,4]-benzoquinone]
98 | 1600 | 97 | 85 |  | O=C1C=C(O)C(=O)C(c2c[nH]c3c(OCc4ccccc4)cccc23)=C1O [7B, 2,5-dihydroxy-3-(7-benzyloxy-1H-indol-3-yl)-[1,4]-benzoquinone]
61 | 16500 | 20 | 25 |  | Cc1ccc2[nH]c(C)c(C3=C(O)C(=O)C=C(O)C3=O)c2c1 [7C, 2,5-dihydroxy-3-(2,5-dimethyl-1H-indol-3-yl)-[1,4]-benzoquinone]
0 | 126000 | 0 | 31 |  | COc1ccc2[nH]c(C)c(C3=C(O)C(=O)C=C(O)C3=O)c2c1 [7D, 2,5-dihydroxy-3-(2-methyl-5-methoxy-1H-indol-3-yl)-[1,4]-benzoquinone]
91 | 52200 | 60 | 81 |  | Cc1[nH]c2ccc(Cl)cc2c1C1=C(O)C(=O)C=C(O)C1=O [7E, 2,5-dihydroxy-3-(2-methyl-5-chloro-1H-indol-3-yl)-[1,4]-benzoquinone]
46 | 207000 | 16 | 0 |  | Cc1ccc2c(C3=C(O)C(=O)C=C(O)C3=O)c(C)[nH]c2c1 [7F, 2,5-dihydroxy-3-(2,6-dimethyl-1H-indol-3-yl)-[1,4]-benzoquinone]

Further lines, the molecule ahead of its results:

Structure (SMILES) | inhibition at 50 µM [1] [%] | IC50 [2, 4] [nM] | inhibition at 50 µM [2] [%] | inhibition at 50 µM [3] [%] | IC50 [2, 5] [nM]
O=C1C=C(O)C(=O)C(c2c[nH]c3ccc(OCc4ccccc4)cc23)=C1O [4G, 2,5-dihydroxy-3-(5-benzyloxy-1H-indol-3-yl)-[1,4]-benzoquinone] | 96 | 1800 | 50 | 26 | 
Cc1ccc2[nH]cc(C3=C(O)C(=O)C=C(O)C3=O)c2c1 [4H, 2,5-dihydroxy-3-(5-methyl-1H-indol-3-yl)-[1,4]-benzoquinone] | 94 | 2500 | 61 | 55 | 
O=C1C=C(O)C(=O)C(c2c[nH]c3cc(F)ccc23)=C1O [5A, 2,5-dihydroxy-3-(6-fluoro-1H-indol-3-yl)-[1,4]-benzoquinone] | 91 | 2000 | 48 | 90 | 6800
O=C1C=C(O)C(=O)C(c2c[nH]c3cc(Cl)ccc23)=C1O [5B, 2,5-dihydroxy-3-(6-chloro-1H-indol-3-yl)-[1,4]-benzoquinone] | 99 | 2400 | 92 | 81 | 
O=C1C=C(O)C(=O)C(c2c[nH]c3cc(OCc4ccccc4)ccc23)=C1O [5C, 2,5-dihydroxy-3-(6-benzyloxy-1H-indol-3-yl)-[1,4]-benzoquinone] | 89 | 1700 | 97 | 92 | 
Cc1ccc2c(C3=C(O)C(=O)C=C(O)C3=O)c[nH]c2c1 [5D, 2,5-dihydroxy-3-(6-methyl-1H-indol-3-yl)-[1,4]-benzoquinone] | 80 | 32300 | 16 | 28 | 
COC1=CC(=O)C(OC)=C(c2c[nH]c3c(F)cccc23)C1=O [5E, 2,5-dimethoxy-3-(7-fluoro-1H-indol-3-yl)-[1,4]-benzoquinone] | 29 | 125000 | 67 | 68 | 
O=C1C=C(O)C(=O)C(c2c[nH]c3c(Cl)cccc23)=C1O [5F, 2,5-dihydroxy-3-(7-chloro-1H-indol-3-yl)-[1,4]-benzoquinone] | 92 | 38000 | 23 | 54 | 
O=C1C=C(O)C(=O)C(c2c[nH]c3c(Br)cccc23)=C1O [5G, 2,5-dihydroxy-3-(7-bromo-1H-indol-3-yl)-[1,4]-benzoquinone] | 93 | 2100 | 45 | 88 | 
Cc1cccc2c(C3=C(O)C(=O)C=C(O)C3=O)c[nH]c12 [5H, 2,5-dihydroxy-3-(7-methyl-1H-indol-3-yl)-[1,4]-benzoquinone] | 60 | 4200 | 0 | 1 | 
CCCc1cccc2c(C3=C(O)C(=O)C=C(O)C3=O)c[nH]c12 [6A, 2,5-dihydroxy-3-(7-propyl-1H-indol-3-yl)-[1,4]-benzoquinone] | 93 | 14100 | 23 | 79 | 
CC(C)=CCc1cccc2c(C3=C(O)C(=O)C=C(O)C3=O)c[nH]c12 [6B, 2,5-dihydroxy-3-(7-prenyl-1H-indol-3-yl)-[1,4]-benzoquinone] | 100 | 2100 | 99 | 84 | 
CC(C)=CCC/C(C)=C/Cc1cccc2c(C3=C(O)C(=O)C=C(O)C3=O)c[nH]c12 [6C, 2,5-dihydroxy-3-(7-geranyl-1H-indol-3-yl)-[1,4]-benzoquinone] | 99 | 100 | 95 | 96 | 500
CC(C)=CCCC(C)=CCCC(C)=CCc1cccc2c(C3=C(O)C(=O)C=C(O)C3=O)c[nH]c12 [6D, 2,5-dihydroxy-3-(7-farnecyl-1H-indol-3-yl)-[1,4]-benzoquinone] | 86 | 100 | 89 | 85 | 500
O=C1C=C(O)C(=O)C(c2c[nH]c3c(Cc4ccccc4)cccc23)=C1O [6E, 2,5-dihydroxy-3-(7-benzyl-1H-indol-3-yl)-[1,4]-benzoquinone] | 98 | 1700 | 97 | 98 | 
Cc1ccccc1Cc1cccc2c(C3=C(O)C(=O)C=C(O)C3=O)c[nH]c12 [6F, 2,5-dihydroxy-3-[7-(2-methyl-benzyl)-1H-indol-3-yl]-[1,4]-benzoquinone] | 90 | 600 | 97 | 94 | 1100
CC(C)(C)c1cccc2c(C3=C(O)C(=O)C=C(O)C3=O)c[nH]c12 [6G, 2,5-dihydroxy-3-(7-tert-butyl-1H-indol-3-yl)-[1,4]-benzoquinone] | 96 | 2100 | 33 | 37 | 
O=C1C=C(O)C(=O)C(c2c[nH]c3c(-c4ccccc4)cccc23)=C1O [6H, 2,5-dihydroxy-3-(7-phenyl-1H-indol-3-yl)-[1,4]-benzoquinone] | 98 | 1400 | 92 | 91 | 
